The values below come from patent US20230257385A1, “SALT AND SOLID FORMS OF TABERNANTHALOG” (priority 2021, published 2023).

Molecules are shown by their SMILES.

Series [1] can be described thus: Suspension equilibration of sorbate salt at 20 and 40° C. (Example 10, Experiments 3, 4, 9). The following applies: for Observations (t = 1 d @ 40° C.) / Observations (t = 10 d @ 40° C.) / Observations (t = 1 d @ 20° C.) / Observations (t = 10 d @ 20° C.): sorbate salt Form A in 5 vol solvent; for Observations (t = 1 d @ 40° C.) / Observations (t = 10 d @ 40° C.) / Observations (t = 0 @ 40° C.) / XRPD (IPC, 6 d, wet) / XRPD (post oven dried) / Observations (t = 1 d @ 20° C.) / Observations (t = 10 d @ 20° C.) / Observations (t = 0 @ 20° C.): one solvent per sample; for Observations (t = 0 @ 40° C.) / Observations (t = 0 @ 20° C.): sorbate salt Form A, ca. 50 mg in 5 vol solvent; for XRPD (IPC, 6 d, wet): moist pellet after 6 d; for XRPD (post oven dried): pellet after oven drying. In kind it is physicochemical. As to the method:
The purpose of this panel is to determine if Form A evolves into a supra-ordinate form. The companion panel at 40° C. set-point is in place to detect enantiotropic behaviour via different relative proportions in different solvents. XRPD data of the moist pellets obtained from the suspension equilibration study at 20° C.
The relevant solvent (5 vol) was added to the appropriate vial and the suspensions were stirred and warmed to the predetermined temperature with stirring. […]

A short description of series [2]: Dynamic vapour sorption (DVS) of selected salts (Example 8). The class given is physicochemical. The protocol:
DVS: The moisture sorption properties of the feed API were analyzed by DVS Intrinsic instrument (Surface Measurement System). Approximately 20-50 mg of API was weighed on an aluminum pan and loaded into the instrument equilibrated at 25° C. The sample was allowed to equilibrate under dry atmosphere (0% relative humidity) for 60 minutes before increasing the humidity from 0% to 30% at 5% step increment and from 30% to 90% at 10% step increment. A desorption cycle was also applied from 90% to 30% (10% step) and from 30% to 0% (5% decrement). A rate of change in mass per time unit (dm/dt) of 0.002%/min was set as the equilibrium parameter. Kinetic and isotherm graphs were calculated.

[3] abbreviates: suspension equilibration at 40° C.
[4] abbreviates: suspension equilibration at 20° C.

For the molecule `CC=CC=CC(=O)O.COc1ccc2c3c([nH]c2c1)CCN(C)CC3` [Experiment 4-Sample G], in series [1], the “Observations (t = 1 d @ 40° C.)” value was “Suspension”, the “Observations (t = 10 d @ 40° C.)” value is on record as “Suspension” and the “Observations (t = 0 @ 40° C.)” value is reported as “Suspension”. In addition, in series [1] (setting [3]), the “XRPD (IPC, 6 d, wet)” value is reported as “Form A” and the “XRPD (post oven dried)” value is listed as “Form A”.

With `C/C=C/C=C/C(=O)O.COc1ccc2c3c([nH]c2c1)CCN(C)CC3` [Experiment 4-Sample Q], in series [1], the “Observations (t = 1 d @ 40° C.)” value was “Suspension”, the “Observations (t = 10 d @ 40° C.)” value is given as “Suspension” and the “Observations (t = 0 @ 40° C.)” value is “Suspension”. In series [1] (setting [3]), the “XRPD (IPC, 6 d, wet)” value is “Form A” and the “XRPD (post oven dried)” value was “Form A”.

Turning to `CC=CC=CC(=O)O.COc1ccc2c3c([nH]c2c1)CCN(C)CC3` [Experiment 4-Sample L], in series [1], the “Observations (t = 1 d @ 40° C.)” value is “Suspension”, the “Observations (t = 10 d @ 40° C.)” value is given as “Suspension” and the “Observations (t = 0 @ 40° C.)” value was “Suspension”. Besides, in series [1] (setting [3]), the “XRPD (IPC, 6 d, wet)” value was “Form A” and the “XRPD (post oven dried)” value is “Form A”.

With `C/C=C/C=C/C(=O)O.COc1ccc2c3c([nH]c2c1)CCN(C)CC3` [Experiment 4-Sample H], in series [1], the “Observations (t = 1 d @ 40° C.)” value is listed as “Suspension”, the “Observations (t = 10 d @ 40° C.)” value is “Suspension” and the “Observations (t = 0 @ 40° C.)” value is on record as “Suspension”. Also, in series [1] (setting [3]), the “XRPD (IPC, 6 d, wet)” value is recorded as “Pattern #3” and the “XRPD (post oven dried)” value is on record as “Form A”.

Consider `CC=CC=CC(=O)O.COc1ccc2c3c([nH]c2c1)CCN(C)CC3` [Experiment 3-Sample O], for which, in series [1], the “Observations (t = 1 d @ 20° C.)” value was “Suspension”, the “Observations (t = 10 d @ 20° C.)” value was “Suspension” and the “Observations (t = 0 @ 20° C.)” value is “Suspension”. Also, in series [1] (setting [4]), the “XRPD (IPC, 6 d, wet)” value is given as “Form A” and the “XRPD (post oven dried)” value is “Form A”.

As for `CC=CC=CC(=O)O.COc1ccc2c3c([nH]c2c1)CCN(C)CC3` [Experiment 3-Sample N], in series [1], the “Observations (t = 1 d @ 20° C.)” value is reported as “Suspension”, the “Observations (t = 10 d @ 20° C.)” value was “Suspension” and the “Observations (t = 0 @ 20° C.)” value was “Suspension”. For the same molecule, in series [1] (setting [4]), the “XRPD (IPC, 6 d, wet)” value was “Form A” and the “XRPD (post oven dried)” value is “Form A”.

Take `CC=CC=CC(=O)O.COc1ccc2c3c([nH]c2c1)CCN(C)CC3` [Experiment 4-Sample J]: in series [1], the “Observations (t = 1 d @ 40° C.)” value is reported as “Suspension”, the “Observations (t = 10 d @ 40° C.)” value was “Suspension” and the “Observations (t = 0 @ 40° C.)” value was “Suspension”. In series [1] (setting [3]), the “XRPD (IPC, 6 d, wet)” value is “Form A” and the “XRPD (post oven dried)” value is “Form A”.

For `COc1ccc2c3c([nH]c2c1)CCN(C)CC3.O=C(O)c1ccccc1` [Tabernanthalog• Benzoate], the “DVS 0 to 90 to 0% RH (dm/dt <0.002%), mass change” value (“DVS 0 to 90 to 0% RH … mass change” below) in series [2] (desorption, 0.0% RH) is −0.037%; in series [2] (desorption, 5.0% RH), −0.034%; in series [2] (desorption, 10.0% RH), −0.032%; in series [2] (desorption, 15.0% RH), −0.032%; in series [2] (desorption, 20.0% RH), −0.029%; in series [2] (desorption, 25.0% RH) it was −0.028%. The “DVS 0 to 90 to 0% RH … mass change” value is listed as −0.023% in series [2] (desorption, 30.0% RH); −0.018% in series [2] (desorption, 40.0% RH); −0.014% in series [2] (desorption, 50.0% RH); −0.001% in series [2] (desorption, 60.0% RH); 0.034% in series [2] (desorption, 70.0% RH); 0.063% in series [2] (desorption, 80.0% RH). In addition, the “DVS 0 to 90 to 0% RH … mass change” value in series [2] (desorption, 90.0% RH) is on record as 0.118%; in series [2] (sorption, 0.0% RH), 0.00%; in series [2] (sorption, 5.0% RH), −0.001%; in series [2] (sorption, 10.0% RH) it was 0.002%; in series [2] (sorption, 15.0% RH), −0.002%; in series [2] (sorption, 20.0% RH), −0.003%. The “DVS 0 to 90 to 0% RH … mass change” value in series [2] (sorption, 25.0% RH) is listed as −0.002%; in series [2] (sorption, 30.0% RH) it was 0.002%; in series [2] (sorption, 40.0% RH) it was 0.002%; in series [2] (sorption, 50.0% RH), 0.006%; in series [2] (sorption, 60.0% RH), 0.009%; in series [2] (sorption, 70.0% RH), 0.009%. Also, the “DVS 0 to 90 to 0% RH … mass change” value in series [2] (sorption, 80.0% RH) is given as 0.046%; in series [2] (sorption, 90.0% RH), 0.118%.

`CC=CC=CC(=O)O.COc1ccc2c3c([nH]c2c1)CCN(C)CC3` [Experiment 4-Sample F]: in series [1], the “Observations (t = 1 d @ 40° C.)” value was “Partial” and the “Observations (t = 0 @ 40° C.)” value was “Partial”. Further, in series [1] (setting [3]), the “XRPD (IPC, 6 d, wet)” value is given as “Form A” and the “XRPD (post oven dried)” value is “Form A”.

For `C/C=C/C=C/C(=O)O.COc1ccc2c3c([nH]c2c1)CCN(C)CC3` [Experiment 4-Sample R], in series [1], the “Observations (t = 1 d @ 40° C.)” value was “Suspension”, the “Observations (t = 10 d @ 40° C.)” value is “Suspension” and the “Observations (t = 0 @ 40° C.)” value was “Suspension”. For the same molecule, in series [1] (setting [3]), the “XRPD (IPC, 6 d, wet)” value was “Pattern #4” and the “XRPD (post oven dried)” value is recorded as “Form A”.

Consider `CC=CC=CC(=O)O.COc1ccc2c3c([nH]c2c1)CCN(C)CC3` [Experiment 3-Sample L], for which, in series [1], the “Observations (t = 1 d @ 20° C.)” value was “Suspension”, the “Observations (t = 10 d @ 20° C.)” value is recorded as “Suspension” and the “Observations (t = 0 @ 20° C.)” value is recorded as “Suspension”. Besides, in series [1] (setting [4]), the “XRPD (IPC, 6 d, wet)” value is “Form A” and the “XRPD (post oven dried)” value is “Form A”.

Turning to `C/C=C/C=C/C(=O)O.COc1ccc2c3c([nH]c2c1)CCN(C)CC3` [Experiment 3-Sample C], in series [1], the “Observations (t = 1 d @ 20° C.)” value is recorded as “Suspension”, the “Observations (t = 10 d @ 20° C.)” value is “Suspension” and the “Observations (t = 0 @ 20° C.)” value was “Suspension”. Moreover, in series [1] (setting [4]), the “XRPD (IPC, 6 d, wet)” value is reported as “Form A” and the “XRPD (post oven dried)” value is on record as “Form A”.

Consider `C/C=C/C=C/C(=O)O.COc1ccc2c3c([nH]c2c1)CCN(C)CC3` [Experiment 4-Sample C], for which, in series [1], the “Observations (t = 1 d @ 40° C.)” value is reported as “Suspension”, the “Observations (t = 10 d @ 40° C.)” value is “Suspension” and the “Observations (t = 0 @ 40° C.)” value is reported as “Suspension”. Besides, in series [1] (setting [3]), the “XRPD (IPC, 6 d, wet)” value is on record as “Form A” and the “XRPD (post oven dried)” value is “Form A”.

For the molecule `CC=CC=CC(=O)O.COc1ccc2c3c([nH]c2c1)CCN(C)CC3` [Experiment 9-Sample C], the “XRPD (post Filter dried)” value in series [1] (Experiment 9, suspension equilibration at 40° C., filter dried) was “Form A”. The “XRPD (IPC, 5 d, wet)” value in series [1] (Experiment 9, suspension equilibration at 40° C., targets Pattern #3, #4, #5) is recorded as “Form A”.
